Patent US10159252B2, “Fungicidal compounds and compositions” (AgroFresh Inc., priority 2015, dated 2018)
Counter-ions that a name gives are not always drawn.

Assays:
Botrytis cinerea [1] = test: In vivo volatile bioassay on inoculated fruit (strawberry, grape, blueberry); settings: B. cinerea, 10 mg/L headspace, sublimed, 3 day treatment plus additional 3 days at 21° C.
Protocol: (§1) To assess the in vivo activity of volatile antimicrobial compound of Sample 1 (see Example 1) in fruit, a volatile bioassay is developed using apple, pear, orange, strawberry, grape and blueberry. Two apples, two oranges, two pears, eight strawberries, sixteen grapes or thirty blueberries (per rep, in duplicate) are placed in a clamshell with the stem end facing up for all fruits except for strawberry (stem end facing downwards). A fresh wound is inoculated with 20 μL 1×10^6 per mL Penicillium expansum (P. expansum) spore suspension (apple and pear), 20 μL×1×10^6 per mL Penicillium digitatum (P. digitatum) spore suspension (orange), and 20 μL×1×10^6 (strawberry and grape) or 10 μL (blueberry) of 1×10^5 per mL Botrytis cinerea (B. cinerea) spore suspension. The clamshells are placed inside a 117 L Rubbermaid storage box (Cat #2244), and the lids closed.
(§2) Sample 1, prepared according to Example 1 and dissolved in acetone, is pipetted onto a cotton strip, where the acetone is allowed to evaporate for 5 min, and then introduced into the container by a sublimation device (copper tube heated to 200° C. with fan flow at 0.5 liters per minute (L/min)) to achieve a final headspace concentration of 10 mg/L). The containers are then held for 3 d at 21° C. After treatment, the fruits are held for an additional 3 d at 21° C., then evaluated for disease incidence (millimeter (mm) diameter of browning or water-soaked lesions) and pathogen sporulation (mm diameter) for apple, pear and orange, as well as Botrytis cinerea disease incidence (%) and severity (0 to 4) for strawberry, grape and blueberry. Results are summarized in Table 2 showing good in vivo antimicrobial control of three fungal pathogens on six different hosts when applied as a volatile fungicide. Results are also depicted in FIG. 1.

Penicillium expansum [2] = test: In vivo volatile bioassay on inoculated fruit (apple, pear); settings: P. expansum, 10 mg/L headspace, sublimed, 3 day treatment plus additional 3 days at 21° C.
Protocol: as §1, §2

Penicillium expansum [3] = test: In vitro volatile inhibition assay, 12-well plate, half-strength PDA; assay type: cell-based; settings: P. expansum, 3 d at 23° C.; for percent growth relative to control: volatile
Protocol: (§3) A 12-well microtiter plate (6.5 milliliter (mL) volume per well) is used for the in vitro inhibition assay for volatile antimicrobial compound of Sample 1 (see Example 1) against two plant fungal pathogens. A 3-mL volume of half-strength Potato Dextrose Agar (PDA) is added to each well. After cooling, 1 microliter (μL) of 1×10^5 spores per mL of Botrytis cinerea (B. cinerea) or Penicillium expansum (P. expansum) suspension is spotted to the center of the agar. A Whatman #1 filter disk (Cat. No. 1001-0155) is placed, in duplicate, on the underside of a polyethylene polymerase chain reaction (PCR) plate sealing film.
(§4) For determination of the minimum inhibitory concentration (MIC), the test compound is diluted in acetone, and the appropriate amount of compound added to disks in a dose dependent manner to achieve a final headspace concentration of 35.7 to 0.03 milligrams per liter (mg/L). The acetone is permitted to evaporate for 5 min. The headspace around the inoculum is then sealed inside the well by the film with the adhering disk containing the fungicide. The plates are inverted, placed over the treated disks and sealed to prevent any of the chemical from flaking from the disk and falling onto the inoculated agar. After 3 days (d) of storage at 23° C., cultures are evaluated for percent growth relative to control. Results are summarized in Table 1 showing the ability of benzoxaborole compound of Sample 1 to control the growth of two fungal plant pathogens through volatile activity.

Botrytis cinerea [4] = test: as above; assay type: cell-based; settings: B. cinerea, 3 d at 23° C.; for percent growth relative to control: volatile
Protocol: as §3, §4

Penicillium digitatum = test: In vivo volatile bioassay on inoculated fruit (orange); settings: P. digitatum, 10 mg/L headspace, sublimed, 3 day treatment plus additional 3 days at 21° C.
Text: To assess the in vivo activity of volatile antimicrobial compound of Sample 1 (see Example 1) in fruit, a volatile bioassay is developed using apple, pear, orange, strawberry, grape and blueberry. Two apples, two oranges, two pears, eight strawberries, sixteen grapes or thirty blueberries (per rep, in duplicate) are placed in a clamshell with the stem end facing up for all fruits except for strawberry (stem end facing downwards). […]
as §2, with “The containers are then held for 3 d at 21° C.” left out, “Results are summarized in Table 2 showing good in vivo antimicrobial control of three fungal pathogens on six different hosts when applied as a volatile fungicide. Results are also depicted in FIG. 1.” left out

[5] = headspace concentration 0.03 mg/L
[6] = headspace concentration 0.07 mg/L
[7] = headspace concentration 0.1 mg/L
[8] = headspace concentration 0.3 mg/L
[9] = headspace concentration 0.6 mg/L
[10] = headspace concentration 1.1 mg/L
[11] = headspace concentration 2.2 mg/L
[12] = headspace concentration 4.5 mg/L
[13] = headspace concentration 8.9 mg/L
[14] = headspace concentration 17.9 mg/L
[15] = headspace concentration 35.7 mg/L
[16] = Penicillium expansum, 72 h, applied as a volatile fungicide, headspace concentration
[17] = Botrytis cinerea, 72 h, applied as a volatile fungicide, headspace concentration

Compound: Fc1ccc2c(c1)CO[B-]2(F)F [Sample 1, potassium 1,1,5-trifluoro-1,3-dihydro-2,1-benzoxaborolate salt]
- Incidence (%) (Botrytis cinerea [1]; Blueberry): 5.0%
- Severity (0-4) (Botrytis cinerea [1]; Blueberry): 0.06
- Incidence (%) (Botrytis cinerea [1]; Grape): 23.3%
- Severity (0-4) (Botrytis cinerea [1]; Grape): 0.12
- Incidence (%) (Botrytis cinerea [1]; Strawberry): 6.3%
- Severity (0-4) (Botrytis cinerea [1]; Strawberry): 0.03
- Browning (mm) (Penicillium expansum [2]; Apple): 4.8 mm
- Sporulation (mm) (Penicillium expansum [2]; Apple): 7.3 mm
- Browning (mm) (Penicillium expansum [2]; Pear): 5.3 mm
- Sporulation (mm) (Penicillium expansum [2]; Pear): 4.3 mm
- percent growth relative to control (Penicillium expansum [3]; [5]): −2.7%
- percent growth relative to control (Penicillium expansum [3]; [6]): −1.9%
- percent growth relative to control (Penicillium expansum [3]; [7]): −3.3%
- percent growth relative to control (Penicillium expansum [3]; [8]): −8.2%
- percent growth relative to control (Penicillium expansum [3]; [9]): 12.9%
- percent growth relative to control (Penicillium expansum [3]; [10]): 56.2%
- percent growth relative to control (Penicillium expansum [3]; [11]): 73%
- percent growth relative to control (Penicillium expansum [3]; [12]): 100%
- percent growth relative to control (Penicillium expansum [3]; [13]): 100%
- percent growth relative to control (Penicillium expansum [3]; [14]): 100%
- percent growth relative to control (Penicillium expansum [3]; [15]): 100%
- EC50 (Penicillium expansum [3]; [16]): 1.2 µg/mL
- MIC (Penicillium expansum [3]; [16]): 4.5 µg/mL
- percent growth relative to control (Botrytis cinerea [4]; [5]): 0%
- percent growth relative to control (Botrytis cinerea [4]; [6]): 0%
- percent growth relative to control (Botrytis cinerea [4]; [7]): 0%
- percent growth relative to control (Botrytis cinerea [4]; [8]): 0%
- percent growth relative to control (Botrytis cinerea [4]; [9]): 64.8%
- percent growth relative to control (Botrytis cinerea [4]; [10]): 100%
- percent growth relative to control (Botrytis cinerea [4]; [11]): 100%
- percent growth relative to control (Botrytis cinerea [4]; [12]): 100%
- percent growth relative to control (Botrytis cinerea [4]; [13]): 100%
- percent growth relative to control (Botrytis cinerea [4]; [14]): 100%
- percent growth relative to control (Botrytis cinerea [4]; [15]): 100%
- EC50 (Botrytis cinerea [4]; [17]): 0.5 µg/mL
- MIC (Botrytis cinerea [4]; [17]): 1.1 µg/mL
- Sporulation (mm) (Penicillium digitatum): 0.0 mm
- Water soaked lesion (mm) (Penicillium digitatum): 12.7 mm
